# Experimental data as given in publication PMC7761830, “Structure-Based Virtual Screening of Ultra-Large Library Yields Potent Antagonists for a Lipid GPCR” (Biomolecules, 2020).
# What was measured:
# wild-type CysLT1R = molecular target: T1, wild-type CysLT1R (Homo sapiens, UniProt Q9Y271); experiment: IP1 production assay, antagonist mode, co-stimulation with EC80 LTD4; type: cell-based; details: for inhibition at 30 µM: HEK293, compound 30 µM, LTD4 at EC80, HEK293, wild-type CysLT1R, read-out: inhibition of LTD4-induced IP1 production, single-concentration screen; for Emax: HEK293, read-out: CysLT1R (LTD4) % Max Inhibition ± SEM; for extent of inhibition of LTD4-mediated response at CysLT1R (in words): antagonist mode, 1.5 to 100 µM
# T1 construct: expressed in transfected cells; host or cells: HEK293 (ATCC CRL-1573), transient transfection with Lipofectamine 3000
# T1 sequence (Q9Y271 1-337): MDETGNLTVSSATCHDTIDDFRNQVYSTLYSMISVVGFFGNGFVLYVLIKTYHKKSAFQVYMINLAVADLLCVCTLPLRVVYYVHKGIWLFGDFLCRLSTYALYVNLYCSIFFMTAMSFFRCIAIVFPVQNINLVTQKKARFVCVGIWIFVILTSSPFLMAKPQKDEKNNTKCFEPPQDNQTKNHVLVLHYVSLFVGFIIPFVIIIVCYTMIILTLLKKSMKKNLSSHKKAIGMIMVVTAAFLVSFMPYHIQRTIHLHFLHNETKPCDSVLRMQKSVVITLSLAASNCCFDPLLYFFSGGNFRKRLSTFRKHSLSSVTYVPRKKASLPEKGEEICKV
# Protocol: (§1) For this assay, we used the Cisbio IP-One kit as previously described. […] At 48 h post-transfection, the media was removed and the cells were washed with fresh Hank’s Balanced Salt Solution (HBSS). […] After compound stimulation, the cells were incubated for 1 h at 37 °C and stimulated with IP1-D2 and Ab-Crypt reagents in Lysis Buffer. The cells were then incubated at room temperature for an additional hour. […] Normalized data were plotted using either the three-parameter or four-parameter EC50/IC50 fits of GraphPad Prism 8 (San Diego). […] Data represent the means ± SEM of at least three independent experiments performed in quadruplicate.
# wild-type CysLT2R = molecular target: T2, wild-type CysLT2R (Homo sapiens, UniProt Q9NS75); experiment: as above; type: cell-based; details: for inhibition at 30 µM: HEK293, compound 30 µM, LTD4 at EC80, HEK293, wild-type CysLT2R, read-out: inhibition of LTD4-induced IP1 production, single-concentration screen; for Emax: HEK293, read-out: CysLT2R (LTD4) % Max Inhibition ± SEM
# T2 construct: expressed in transfected cells; host or cells: HEK293 (ATCC CRL-1573), transient transfection with Lipofectamine 3000
# T2 sequence (Q9NS75 1-346): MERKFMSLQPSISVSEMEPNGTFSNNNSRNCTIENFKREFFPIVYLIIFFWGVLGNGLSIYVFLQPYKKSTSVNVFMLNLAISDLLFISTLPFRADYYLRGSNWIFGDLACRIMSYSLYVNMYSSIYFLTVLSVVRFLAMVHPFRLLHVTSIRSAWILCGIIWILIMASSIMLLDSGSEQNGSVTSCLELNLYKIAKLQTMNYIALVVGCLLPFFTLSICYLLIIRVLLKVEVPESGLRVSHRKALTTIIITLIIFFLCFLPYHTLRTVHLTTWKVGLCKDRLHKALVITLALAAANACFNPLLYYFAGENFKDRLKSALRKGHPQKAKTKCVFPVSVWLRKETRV
# Protocol: as §1
SMILES,remaining activity at 30 µM (wild-type CysLT1R),remaining activity at 30 µM (wild-type CysLT2R),also measured
O=C(O)CCC1CCCCN1C(=O)C1CCc2ncncc2C1 (stereo not drawn) [BRI-12302],87.4%,70%,
CC1=C(C(=O)Nc2ccccc2)C(c2ccncc2)n2nc(CCCO)nc2N1 (stereo not drawn) [BRI-12325],76.1%,79.3%,
Cc1cc(O)c(C(=O)O)cc1S(=O)(=O)Nc1ccc(N2CCCC2)c(F)c1 [BRI-12334],47.3%,57.2%,inhibition at 30 µM (wild-type CysLT1R): ≥ 50%; Emax (wild-type CysLT1R): 46 ± 15%; inhibition at 30 µM (wild-type CysLT2R): ≥ 50%; Emax (wild-type CysLT2R): 21 ± 8%
NS(=O)(=O)c1cncc(-c2noc(CN(Cc3ccccc3)c3ccccc3)n2)c1 [BRI-12410],45.2%,46.7%,Ki (wild-type CysLT1R): 590 ± 120 nM; inhibition at 30 µM (wild-type CysLT1R): ≥ 50%; Emax (wild-type CysLT1R): 64 ± 7%; extent of inhibition of LTD4-mediated response at CysLT1R (in words) (wild-type CysLT1R): partial antagonism; inhibition at 30 µM (wild-type CysLT2R): ≥ 50%; Emax (wild-type CysLT2R): 18 ± 9%
CCOc1ccc(NC(=O)c2cccn3nnnc23)c(C(N)=O)c1 [BRI-12469],80.7%,52.8%,
CC(=O)Nc1ccccc1OS(=O)(=O)c1cccc2cc(C)cnc12 [BRI-12318],74.1%,88.2%,
CC1(C(=O)Nc2ccc(C(=O)NCCC(=O)O)cc2)CCOCC1 [BRI-12476],90.1%,66.4%,
O=C(Nc1ccccc1C(=O)N1CCN2C(=O)NC(=O)C2C1)c1cccs1 (stereo not drawn) [BRI-12307],84.6%,110%,
O=C(NCC(F)(F)F)c1cccc(NC(=O)C2C3C=CC(C3)C2C(=O)O)c1 (stereo not drawn) [BRI-12346],66.6%,90.6%,
CC(Sc1n[nH]c(=O)n1C1CC1)C(=O)c1c[nH]c2ccccc12 (stereo not drawn) [BRI-12342],71.7%,81.2%,
O=C(O)CNC(=O)c1ccc(NC(=O)c2cc3ccccn3c2)cc1 [BRI-12317],86.4%,89.2%,
CN(CC(=O)O)C(=O)c1ccc(-c2ccc(NC(=O)C(C)(C)C)nc2)o1 [BRI-12450],57.6%,41.1%,inhibition at 30 µM (wild-type CysLT1R): ≥ 50%; Emax (wild-type CysLT1R): 44 ± 25%; inhibition at 30 µM (wild-type CysLT2R): ≥ 50%; Emax (wild-type CysLT2R): 24 ± 8%
Cn1cc(C(N)=O)c(NC(=O)CCc2cccc(C(F)(F)F)c2)n1 [BRI-12327],68.5%,73.4%,
c1ccc(C(CNc2ccc3nnnn3n2)c2c[nH]c3ccccc23)cc1 (stereo not drawn) [BRI-12355],76.8%,91.8%,
Cc1cccc(COc2ccc(CNS(=O)(=O)N(C)CCC(=O)O)cc2)c1 [BRI-12411],55.9%,57.3%,Ki (wild-type CysLT1R): 720 ± 160 nM; inhibition at 30 µM (wild-type CysLT1R): ≥ 50%; Emax (wild-type CysLT1R): 66 ± 18%; extent of inhibition of LTD4-mediated response at CysLT1R (in words) (wild-type CysLT1R): partial antagonism
Cn1cc(S(=O)(=O)N[C@@H]2CC[C@H](C(=O)O)C2)cc1C(N)=O [BRI-12303],77.9%,86.5%,
O=C(O)CC(NC(=O)c1ccc2[nH]ccc2c1)c1ccccc1 (stereo not drawn) [BRI-12361],83.4%,91.3%,
CN(CCCc1cc(-c2ccc(F)cc2)n[nH]1)S(=O)(=O)c1[nH]ncc1C(=O)O [BRI-12431],90.9%,63.2%,
CC(O)CN(C(=O)Nc1ccc2c(c1)CCCC2=O)C1CC1 (stereo not drawn) [BRI-12423],89.7%,68.2%,
Cc1cccc(-c2nnc(SCc3ccc(C(N)=O)cc3)n2CC(=O)O)c1 [BRI-12350],68.4%,79.8%,
Cc1ccnc(-c2ccc(NC(=O)COC(C)C)cc2)n1 [BRI-12422],79.8%,76.5%,
NC(=O)Nc1ccc(C(=O)NCc2c(C(=O)O)oc3ccccc23)cc1 [BRI-12447],85.5%,52.9%,

SMILES,remaining activity at 30 µM (wild-type CysLT1R),remaining activity at 30 µM (wild-type CysLT2R),also measured
CC(C)c1c(C(=O)Nc2ccc3[nH]c(=O)[nH]c3c2)cnn1-c1ccccn1 [BRI-12339],82%,99.8%,
O=C(O)c1cc(S(=O)(=O)NCCc2ccc(Cl)cc2)ccc1O [BRI-12352],73.4%,87.8%,
O=C(NC1CCCC1)c1ccc(NC(=O)C2C3C=CC(C3)C2C(=O)O)cc1 (stereo not drawn) [BRI-12321],87.8%,95.1%,
O=C(O)Cn1ccc(NC(=O)CNC(=O)Cc2cccc(F)c2)n1 [BRI-12471],88.2%,50.7%,
O=C(CC1SC(c2cc3ccccc3oc2=O)=NC1=O)Nc1ccc(F)cc1 (stereo not drawn) [BRI-12345],75.3%,101%,
NC(=O)NC(=O)COC(=O)c1ccccc1Nc1cccc(C(F)(F)F)c1 [BRI-12349],80%,70.5%,
COc1ccc(NC(=O)CN(C)C(=O)c2ccccc2-n2cnnn2)cc1 [BRI-12357],77%,65.7%,
O=C(Cc1cccc(OCc2cccnc2)c1)Nc1cccc(-n2ccc(C(=O)O)n2)c1 [BRI-12414],81.8%,84.9%,
O=C(Cn1ccc(=O)[nH]c1=O)Nc1cccc(C=Cc2ccccn2)c1 [BRI-12354],72.7%,92.8%,
O=C(O)CN(CC(=O)O)S(=O)(=O)Cc1cc(Cl)cc(Cl)c1 [BRI-12456],96.3%,65.2%,
O=C(NCC1(O)CN(C(=O)c2ccc(=O)[nH]c2)C1)c1ccc2c(c1)CCC2 [BRI-12467],69.4%,53.8%,
Cc1nonc1CC(=O)NC1(CNC(=O)c2cc3occc3s2)CCC1 [BRI-12463],81.2%,57.8%,
O=C(Nc1ccccc1C(=O)N1CCn2ncnc2C1)c1ccc(Cl)cc1 [BRI-12419],85.7%,48.1%,
NC(=O)CN1CCN(C(=O)c2ccccc2NC(=O)c2ccc(Cl)cc2)CC1=O [BRI-12454],77.4%,48.4%,inhibition at 30 µM (wild-type CysLT2R): ≥ 50%; Emax (wild-type CysLT2R): 6 ± 10%
CC1CC1C(=O)NCCC(=O)Nc1cccc(Cl)c1-n1cncn1 (stereo not drawn) [BRI-12336],77.3%,92.1%,
CC1CC(C(=O)O)CN(C(=O)Nc2cccc(NC(=O)c3ccccc3)c2)C1 (stereo not drawn) [BRI-12308],95.6%,101%,
O=C(O)CCN(CC1CCCO1)C(=O)c1cc(-c2ccccc2Cl)[nH]n1 (stereo not drawn) [BRI-12320],81.4%,90.5%,
NS(=O)(=O)c1cc(C(=O)NCCc2ccc(OCC(=O)O)cc2)cs1 [BRI-12426],72.6%,41.8%,inhibition at 30 µM (wild-type CysLT2R): ≥ 50%; Emax (wild-type CysLT2R): 5 ± 9%
CC(CNS(=O)(=O)c1csc(-c2ccc(F)cc2)n1)C(=O)O (stereo not drawn) [BRI-12464],103%,60.8%,
CC(C)c1cc(C(=O)Nc2ccc(C(=O)NCC(=O)O)cc2)nn1C [BRI-12406],79.6%,68.4%,
O=C(O)CCC1CCCCN1C(=O)Cc1c[nH]c2cc(F)ccc12 (stereo not drawn) [BRI-12310],77.3%,91.6%,
